Reference: patent US20250099472A1, “RUXOLITINIB FOR THE TREATMENT OF PRURIGO NODULARIS” (INCYTE CORPORATION, priority 2021, published 2025)

Legend:
[1] = test system: skin biopsies from active disease, untreated, prurigo nodularis patients; test: Ruxolitinib-mediated pharmacological inhibition of PN pathophysiology: proteins secreted by cultured PN skin explants, Procarta Multiplex Immunoassay; type: cell-based, human; details: for percent inhibition of IFN-gamma / percent inhibition of IL-2 / percent inhibition of IL-8 (CXCL8) / percent inhibition of IL-10 / percent inhibition of IL-17 alpha (CTLA-8) / percent inhibition of IP-10 (CXCL10): culture supernatant vs DMSO
Experimental: Full-thickness cutaneous skin biopsies were obtained from active disease, untreated, prurigo nodularis patients. Single 4 mm-punch biopsies were obtained from the same lesion for each patient and longitudinally divided into two pieces (see FIG. 1). FIG. 1 depicts a representation of skin punch biopsies used for the JAK1/JAK2 mediated pharmacological inhibition of PN pathophysiology. Biopsies were cultured for 8 days in KBM media+CaCl2 and refreshed every 2-3 days. Ruxolitinib phosphate or DMSO (control) was added to the cell culture media. Conditioned supernatants collected during/prior to media refresh were stored at −80° C. for subsequent analysis. On day 8, cultures were terminated and tissue RNA isolated for subsequent analysis.
Collected supernatants were analyzed to quantify chemokines, cytokines, and growth factors secreted by skin explants in culture and which are involved in inflammation. A total of 51 proteins were detected and quantified in culture supernatants by Procarta Multiplex Immunoassay (Thermo Fisher, Waltham, MA). Supernatants and standards were incubated at 4° C. overnight. Assay plates were read on a Luminex 200 Instrument (Luminex Corporation, Austin, TX). The concentration was extrapolated from the antigen standard curve of each analyte. The percent inhibition determined for each analyte as the difference in protein concentration in cultures with DMSO (CD) versus those with ruxolitinib (CJ), (CD−CJ)/CD (see FIG. 2).

[2] = Solubility of ruxolitinib free base or 1:1 phosphate salt in potential solvents (HPLC); type: physicochemical; details: room temperature, 24 hours
Experimental: First, in order to determine the solubility of ruxolitinib (free base) or its 1:1 phosphate salt, approximately 5 mL of a potential solvent was added to approximately 50 mg of the API or its salt at room temperature. The mixtures were suspended and rotated on a wheel. If the mixtures became clear solutions, more solid material was added. The suspensions were then suspended over 24 hours. The samples were filtered through 0.2 micron filters. The liquid portions were collected and diluted with 50/50 water methanol/water. The concentrations of the diluted samples were analyzed by HPLC. When the free base or salt was fairly insoluble, the results are approximate only.

PN skin = PN skin cultured with nemolizumab; cited from earlier work
PN patients = details: inhibition of IL-31; cited from earlier work

Cc1n[nH]c(C)c1-c1cnn(C2(CC#N)CN(c3cc(F)c(C(=O)N[C@@H](C)C(F)(F)F)cc3F)C2)c1 [4-[3-(cyanomethyl)-3-(3′,5′-dimethyl-1H,1′H-4,4′-bipyrazol-1-yl)azetidin-1-yl]-2,5-difluoro-N-[(1S)-2,2,2-trifluoro-1-methylethyl]benzamide]
percent inhibition of IL-5 ([1]; 48 hours, same assays): 20.25%
percent inhibition of IL-22 ([1]; 48 hours, same assays): 11.16%

N#CC[C@H](C1CCCC1)n1cc(-c2ncnc3[nH]ccc23)cn1 [ruxolitinib]
Solubility ([2]; C12-15 alcohol benzoate, approximate, listed as Free Base): 150 µg/mL
Solubility ([2]; Caprylic triglyceride, approximate, listed as Free Base): 150 µg/mL
Solubility ([2]; Dimethicone, approximate, listed as Free Base): 150 µg/mL
Solubility ([2]; Isopropanol, listed as Free Base): 450 µg/mL
Solubility ([2]; Isopropyl myristate, approximate): 80 µg/mL
Solubility ([2]; Isosorbide dimethyl ether, listed as Free Base): 300 µg/mL
Solubility ([2]; Mineral oil, approximate): 80 µg/mL
Solubility ([2]; Olelyl alcohol, approximate, listed as Free Base): 80 µg/mL
Solubility ([2]; Propylene glycol, listed as Free Base): 18200 µg/mL
Solubility ([2]; Water/glycerin/trolamine (40/40/20)): 13600 µg/mL
percent inhibition of IFN-gamma ([1]; 48 hr): 5.0%
percent inhibition of IL-2 ([1]; 48 hr): 17.8%
percent inhibition of IL-8 (CXCL8) ([1]; 48 hr): 13.7%
percent inhibition of IL-10 ([1]; 48 hr): 36.2%
percent inhibition of IL-17 alpha (CTLA-8) ([1]; 48 hr): 63.9%
percent inhibition of IP-10 (CXCL10) ([1]; 48 hr): 9.7%
percent inhibition of IFN-gamma ([1]; 96 hr): 11.6%
percent inhibition of IL-2 ([1]; 96 hr): 16.6%
percent inhibition of IL-8 (CXCL8) ([1]; 96 hr): ** (no measureable inhibition)
percent inhibition of IL-10 ([1]; 96 hr): 39.9%
percent inhibition of IL-17 alpha (CTLA-8) ([1]; 96 hr): 57.6%
percent inhibition of IP-10 (CXCL10) ([1]; 96 hr): 60.3%

B1: nemolizumab: an IL-31 inhibitor; anti-IL-31 antibody (antibody, chains of the INN, looked up)
heavy: QVQLVQSGAEVKKPGASVKVSCKASGYTFTGYIMNWVRQAPGQGLEWMGLINPYNGGTDYNPQFQDRVTITADKSTSTAYMELSSLRSEDTAVYYCARDGYDDGPYTLETWGQGTLVTVSSASTKGPSVFPLAPSSKSTSGGTAALGCLVKDYFPEPVTVSWNSGALTSGVHTFPAVLQSSGLYSLSSVVTVPSSNFGTQTYTCNVDHKPSNTKVDKTVERKSCVECPPCPAPPVAGPSVFLFPPKPKDTLMISRTPEVTCVVVDVSQEDPEVQFNWYVDGVEVHNAKTKPREEQFNSTFRVVSVLTVVHQDWLNGKEYKCKVSNKGLPAPIEKTISKTKGQPREPQVYTLPPSQEEMTKNQVSLTCLVKGFYPSDIAVEWESNGQPENNYKTTPPMLDSDGSFFLYSKLTVDKSRWQEGNVFSCSVMHEALHNHYTQKSLSLSP
light: DIQMTQSPSSLSASVGDRVTITCQASEDIYSFVAWYQQKPGKAPKLLIYNAQTEAQGVPSRFSGSGSGTDFTLTISSLQPEDFATYYCQHHYDSPLTFGGGTKVEIKRTVAAPSVFIFPPSDEQLKSGTASVVCLLNNFYPREAKVQWKVDNALQSGNSQESVTEQDSKDSTYSLSSTLTLSKADYEKHKVYACEVTHQGLSSPVTKSFNRGEC
IL-17 levels in lesional skin (PN skin): reduction in IL-17 levels
pruritus and skin lesions in PN patients (PN patients): improvement in pruritus and skin lesions
